The values that follow are results of earlier work, collected in US9250230B2, “Using induced pluripotent stem cells for screening anti-neoplastic agents” (priority 2011, dated 2016).

The test system of one series is iPS reprogramming. As to conditions: iPS reprogramming of somatic cells.
Series [1] concerns chemical reprogramming to CiPSCs. As to conditions: TTNPB added to small-molecule reprogramming.

Regarding `O=CC[C@@H](O)[C@H](O)[C@H](O)CO` [2-DG, 2-deoxy-D-glucose], the “effect on reprogramming efficiency” value with iPS reprogramming is listed as “inhibited the reprogramming efficiency”. With `O=C(CO)[C@@H](O)[C@H](O)[C@H](O)COP(=O)(O)O` [F6P, D-fructose-6-phosphate], in the series on iPS reprogramming, the “effect on reprogramming efficiency” value was “increased reprogramming efficiency”.

`C/C(=C\c1ccc(C(=O)O)cc1)c1ccc2c(c1)C(C)(C)CCC2(C)C` [TTNPB]: in series [1], the “enhancement of reprogramming efficiency of chemical reprogramming” value was “up to 40 fold”.
